The record followed here is ChEMBL document CHEMBL1201862, “PubChem BioAssay data set” (2004).

Calls of active or inactive are those of the source. Unless noted, the rule behind the calls is not given here. Bounds are passed on as bounds.

The target of test [1] is Melanin-concentrating hormone receptor 1 (Homo sapiens, UniProt Q99705). Nature of the test: Late-stage fluorescence-based counterscreen for antagonists of the G-protein coupled receptor 7 (GPR7): cell-based dose response assay to identify antagonists of the melanin-concentrating hormone receptor 1 (MCHR1) Set 5. Format: functional. In general terms: A counterscreen serves to expose hits that act by an unwanted route or on another target.
Chain of Melanin-concentrating hormone receptor 1 (Q99705 whole entry): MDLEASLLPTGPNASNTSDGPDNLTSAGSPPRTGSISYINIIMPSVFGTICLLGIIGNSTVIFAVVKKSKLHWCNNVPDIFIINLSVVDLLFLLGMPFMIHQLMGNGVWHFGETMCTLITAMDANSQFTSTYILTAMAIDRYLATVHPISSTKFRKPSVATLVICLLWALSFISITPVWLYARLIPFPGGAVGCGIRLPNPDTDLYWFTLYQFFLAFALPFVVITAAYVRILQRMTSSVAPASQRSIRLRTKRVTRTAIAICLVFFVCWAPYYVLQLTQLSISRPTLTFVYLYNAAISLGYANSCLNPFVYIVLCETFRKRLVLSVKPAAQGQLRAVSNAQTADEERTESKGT

A further test has as its system Erythrocyte. In words: FACS-based assay to assess parasite growth inhibition 96 hr Measured in Cell-Based System Using Flow Cytometry - 2126-05_Inhibitor_Dose_DryPowder_Activity. [Related pubchem assays (depositor defined):AID488774]. Format: functional. The note with it: Homo sapiens. For orientation: A flow cytometer gives signals particle by particle.
Test [2] is described as follows: FACS-based assay to assess parasite growth inhibition 48 hr Measured in Cell-Based System Using Flow Cytometry - 2126-03_Inhibitor_Dose_DryPowder_Activity. [Related pubchem assays (depositor defined):AID488774]. Format: functional. Particulars: Homo sapiens.
Test [3] can be described thus: A cell-based HTS for delayed death inhibitors of the malarial parasite plastid Measured in Microorganism System Using Plate Reader - 2126-02_Inhibitor_Dose_DryPowder_Activity. Format: functional, organism-based.
Test [4] in a line: A cell-based HTS for delayed death inhibitors of the malarial parasite plastid Measured in Microorganism System Using Plate Reader - 2126-01_Inhibitor_Dose_DryPowder_Activity. Format: functional, organism-based.

Consider `CCc1cccc(Oc2c(Cl)cnn(Cc3cccc4ccccc34)c2=O)c1`, for which the IC50 – broadly, the point on the concentration scale where inhibition reaches its midpoint – in test [1] is > 20 µM (inactive).

Regarding `COCCOC(=O)N(C)C[C@@H]1OCCCC[C@H](C)Oc2ccc(NC(=O)Nc3ccccc3)cc2C(=O)N([C@@H](C)CO)C[C@H]1C`, the concentration at half-maximal activity (AC50) (usually the concentration at which the activity in the assay is half-maximal) with Erythrocyte is 13.4 µM (active); in test [2], 10.9 µM (active); in test [3], > 5 µM (inactive); in test [4], > 5 µM (inactive).
